pIC50: −log10 of the molar value. Counter-ions that a name gives are not always drawn. Like-named read-outs stand apart in the source and are kept apart here.
Key:
[1] = test system: 3H-5-HT uptake into whole rat brain synaptosomes; experiment: Inhibition of 3H-5-HT uptake into rat brain synaptosomes; type: biochemical; settings: 3H-5-HT accumulation into whole rat brain synaptosomes, in vitro; read-out: Inhibition of serotonin reuptake IC50
Protocol: Inhibition of ^3H-5-HT Uptake Into Rat Brain Synaptosomes
Using this method the ability of drugs to inhibit the accumulation of ^3H-5-HT into whole rat brain synaptosomes is determined in vitro.

[2] = biological target: T1, human 5-HT1A receptors (Homo sapiens, UniProt P08908); experiment: Inhibition of 3H-5-CT binding to human 5-HT1A receptors
T1 construct: expressed in transfected cells; host or cells: HeLa cells (HA7), used as cell homogenate
T1 sequence (P08908 1-422): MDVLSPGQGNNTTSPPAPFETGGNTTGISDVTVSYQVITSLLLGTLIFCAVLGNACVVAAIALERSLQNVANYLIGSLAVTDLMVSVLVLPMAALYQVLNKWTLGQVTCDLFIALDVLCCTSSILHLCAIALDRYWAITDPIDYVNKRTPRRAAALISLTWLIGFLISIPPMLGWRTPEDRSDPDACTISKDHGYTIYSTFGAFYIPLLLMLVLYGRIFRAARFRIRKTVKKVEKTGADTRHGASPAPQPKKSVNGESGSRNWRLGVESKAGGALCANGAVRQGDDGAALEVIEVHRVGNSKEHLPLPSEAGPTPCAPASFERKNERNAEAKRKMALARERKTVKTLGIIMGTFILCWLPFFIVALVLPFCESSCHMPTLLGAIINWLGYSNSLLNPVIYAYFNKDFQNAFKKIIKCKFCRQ
Protocol: Inhibition of ^3H-5-CT Binding to Human 5-HT1A Receptors
Human 5-HT1A receptors (40 μg of cell homogenate) were incubated for 15 minutes at 37° C. in 50 mM Tris buffer at pH 7.7 in the presence of ^3H-5-CT. Non-specific binding was determined by including 10 μM of metergoline. The reaction was terminated by rapid filtration through Unifilter GF/B filters on a Tomtec Cell Harvester. Filters were counted in a Packard Top Counter.

[3] = biological target: T2, cloned 5-HT1A receptors (Homo sapiens, UniProt P08908); experiment: Antagonism of 5-HT induced inhibition of forskolin induced cAMP accumulation; type: cell-based; settings: cloned 5-HT1A receptors in transfected HeLa cells (HA7)
T2 construct: expressed in transfected cells; host or cells: HeLa cells (HA7)
T2 sequence (P08908 1-422): T1 sequence (P08908 1-422)
Protocol: The assay was performed as a modification of the method described by Pauwels, P. J et al, Biochem. Pharmacol. 1993, 45, 375.

[4] = read-out: Inhibition of 3H-5-CT binding IC50, cloned human 5-HT1A receptors expressed in transfected HeLa cells (HA7), cell homogenate, 15 minutes at 37° C., pH 7.7

| Compound | melting point [°C] | pIC50 [1] | pIC50 [3] | other results |
| --- | --- | --- | --- | --- |
| Clc1ccc2c(c1)C(CCN1CCN(c3cccc4c3OCCO4)CC1)CN2.O=C(O)C(=O)O (stereo not drawn) | 153 to 157 |  |  |  |
| Fc1ccc2c(ccn2CCN2CCN(c3cccc4c3OCCO4)CC2)c1.O=C(O)C(=O)O | 230 to 231 |  |  |  |
| O=C(O)C(=O)O.c1cc2c(c(N3CCN(CCn4ccc5ccccc54)CC3)c1)OCCO2 | 225 to 229 |  |  |  |
| Clc1ccc2c(CCN3CCN(c4c(Cl)ccc5c4OCCO5)CC3)c[nH]c2c1.O=C(O)C(=O)O [Compound 1m, 6-Chloro-3-[2-[4-(6-Chloro-1,4-benzodioxan-5-yl)piperazin-1-yl]ethyl]-1H-indole oxalate] | 216 to 217 | 7.24 |  | pIC50 [2]: 7.00 |
| O=C(O)C(=O)O.c1cc2c(c(N3CCN(CCn4ccc5ccccc54)CC3)c1)OCC2 | 223 to 226 |  |  |  |
| COc1ccc2[nH]cc(CCN3CCN(c4cccc5c4OCCO5)CC3)c2c1 (as salt: oxalate) [Compound 1i, 3-[2-[4-(1,4-Benzodioxan-5-yl)piperazin-1-y]ethyl]-5-methoxy-1H-indole hemioxalate] | 189 to 196 |  |  |  |
| Cc1cc2c(c(C3CCN(CCc4c[nH]c5cc(Cl)ccc45)CC3)c1)OC(C)(C)C2.O=C(O)/C=C/C(=O)O [Compound 1d, 6-Chloro-3-[2-[4-(2,2,5-trimethyl-2,3-dihydrobenzofuran-7-yl)piperidin-1-yl]ethyl]-1H-indole fumarate] | 232 to 237 | 7.44 |  | pIC50 [2]: 7.26 |
| Clc1ccc2[nH]cc(CCN3CCN(c4cccc5c4OCCO5)CC3)c2c1 [Compound 1a, 3-[2-[4-(1,4-Benzodioxan-5-yl)Piperazin-1-yl]Ethyl]-5-Chloro-1H-Indole Oxalate] |  | 8.30 | 5.54 | pIC50 [2]: 7.77 |
| Clc1ccc2c(CCN3CCN(c4cccc5c4OCC5)CC3)c[nH]c2c1.O=C(O)C(=O)O [Compound 1o, 6-Chloro-3-[2-[4-(2,3-dihydrobenzofuran-7-yl)piperazin-1-yl]ethyl]-1H-indole oxalate] | 205 to 207 |  | 5.49 |  |
| Clc1ccc2c(CCN3CCN(c4cccc5c4SCCC5)CC3)c[nH]c2c1 [Compound 1t] |  |  | 5.23 |  |
| Fc1ccc2[nH]cc(CCN3CCC(c4cccc5ccoc45)CC3)c2c1.O=C(O)C(=O)O | 191 to 194 |  |  |  |
| CC1(C)Cc2cccc(C3=CCN(CCc4c[nH]c5cc(Cl)ccc45)CC3)c2O1 [Compound 1g, 6-Chloro-3-[2-[4-(2,2,-dimethyl-2,3,-dihydrohydrobenzofuran-7-yl)-1,2,3,6-tetrahydro-1-pyridyl]ethyl]-1H-indole oxalate] |  | 8.42 | 5.74 | pIC50 [2]: 8.55 |
| O=C(O)C(=O)O.c1ccc(CN2CC(CCN3CCN(c4cccc5c4OCCO5)CC3)c3ccccc32)cc1 (stereo not drawn) | 158 to 165 |  |  |  |
| Brc1ccc2[nH]cc(CCN3CCC(c4cccc5ccoc45)CC3)c2c1.O=C(O)C(=O)O | 153 to 157 |  |  |  |
| COc1ccc2[nH]cc(CCN3CCN(c4cccc5c4OCCO5)CC3)c2c1 [Compound 1i, 3-[2-[4-(1,4-Benzodioxan-5-yl)piperazin-1-y]ethyl]-5-methoxy-1H-indole hemioxalate] |  | 8.17 | 6.21 | pIC50 [2]: 8.16 |
| CC1(C)Cc2cccc(C3=CCN(CCc4c[nH]c5cc(Cl)ccc45)CC3)c2O1 (as salt: oxalate) [Compound 1g, 6-Chloro-3-[2-[4-(2,2,-dimethyl-2,3,-dihydrohydrobenzofuran-7-yl)-1,2,3,6-tetrahydro-1-pyridyl]ethyl]-1H-indole oxalate] | 200 to 204 |  |  |  |
| CC1(C)Cc2cc(Cl)cc(N3CCN(CCc4c[nH]c5ccccc45)CC3)c2O1 [Compound 3b, 3-[2-[4-(5-Chloro-2,2-dimethyl-2,3-dihydrobenzofuran-7-yl)piperazin-1-yl]ethyl]-1H-indole hemifumarate] |  | 8.08 |  | pIC50 [2, 4]: 8.44 |
| Clc1cc2c(c(N3CCN(CCc4c[nH]c5cc(Cl)ccc45)CC3)c1)OCCO2.O=C(O)C(=O)O [Compound 1l, 6-Chloro-3-[2-[4-(7-chloro-1,4-benzodioxan-5-yl)piperazin-1-yl]ethyl]-1H-indole oxalate] | 237 to 238 | 8.11 |  | pIC50 [2]: 7.92 |
| c1cc2c(c(N3CCN(CCc4c[nH]c5ccccc45)CC3)c1)OCCO2 [Compound 2a, 3-[2-[4-(1,4-Benzodioxan-5-yl)Piperazin-1-yl]Ethyl]-1H-Indole Hemifumarate] |  | 8.46 | 6.80 | pIC50 [2, 4]: 8.54 |
| CN1CC(CCN2CCN(c3cccc4c3OCCO4)CC2)c2ccccc21 (stereo not drawn) [Compound 6a, 3-[2-[4-(1,4-Benzodioxan-5-yl)Piperazin-1-yl]Ethyl]-2,3-Dihydro-1-Methyl-1H-Indole Oxalate] |  |  | 7.00 |  |

| Compound | melting point [°C] | pIC50 [1] | pIC50 [3] | other results |
| --- | --- | --- | --- | --- |
| Clc1ccc2ccn(CCN3CCN(c4cccc5c4OCCO5)CC3)c2c1.O=C(O)C(=O)O | 234 to 235 |  |  |  |
| 3-[2-[4-(1,4-Benzodioxan-5-yl)piperazin-1-yl]ethyl]-5-methyl-1H-indole hemifumarate [Compound 1j] |  | 8.46 | 6.01 | pIC50 [2, 4]: 7.85 |
| 3-[2-[4-(1,4-Benzodioxan-5-yl)Piperazin-1-yl]Ethyl]-6-Chloro-1H-Indole Hemifumarate [Compound 3a] |  | 8.28 | 6.30 | pIC50 [2, 4]: 8.92 |
| Clc1ccc2c(CCN3CC=C(c4cccc5c4OCC5)CC3)c[nH]c2c1.O=C(O)C(=O)O [Compound 1x, 6-Chloro-3-[2-[4-(2,3-dihydrobenzofuran-7-yl)-1,2,3,6-tetrahydropyridin-1-yl]ethyl]-1H-indole oxalate] | 211 to 214 |  | 5.52 |  |
| Clc1ccc2c(ccn2CCN2CCN(c3cccc4c3OCCO4)CC2)c1.O=C(O)C(=O)O | 234 to 235 |  |  |  |
| Cc1[nH]c2ccccc2c1CCN1CCN(c2cccc3c2OCCO3)CC1.O=C(O)C(=O)O [Compound 1c, 3-[2-[4-(1,4-Benzodioxan-5-yl)piperazin-1-yl]ethyl]-2-methyl-1H-indole oxalate] | 205 to 208 | 7.35 |  | pIC50 [2]: 8.60 |
| Fc1ccc2[nH]cc(CCN3CCN(c4cccc5c4OCC5)CC3)c2c1.O=C(O)C(=O)O | 145 to 149 |  |  |  |
| CC1(C)Cc2cccc(C3CCN(CCc4c[nH]c5cc(Cl)ccc45)CC3)c2O1 [Compound 1f, 6-Chloro-3-[2-[4-(2,2, -dimethyl-2,3-dihydrobenzofuran-7-yl)piperidin-1-yl]ethyl]-1H-indole oxalate] |  | 8.23 | 5.74 | pIC50 [2]: 8.21 |
| Clc1ccc2[nH]cc(CCN3CCN(c4cccc5ccsc45)CC3)c2c1.O=C(O)C(=O)O | 175.2 to 176.6 |  |  |  |
| C=CCn1cc(CCN2CCN(c3cccc4c3OCCO4)CC2)c2ccccc21.O=C(O)C(=O)O | 187 to 190 |  |  |  |
| CC1(C)Cc2cccc(N3CCN(CCc4c[nH]c5cc(Cl)ccc45)CC3)c2O1.O=C(O)/C=C/C(=O)O | 165 to 167 |  |  |  |
| Clc1ccc2[nH]cc(CCN3CCN(c4cccc5c4SCC=C5)CC3)c2c1 | 152 to 153 |  |  |  |
| Brc1ccc2[nH]cc(CCN3CCN(c4cccc5c4SCC=C5)CC3)c2c1 | 166 to 167 |  |  |  |
| C#CCn1cc(CCN2CCN(c3cccc4c3OCCO4)CC2)c2ccccc21.O=C(O)C(=O)O | 168 to 172 |  |  |  |
| C=CCN1CC(CCN2CCN(c3cccc4c3OCCO4)CC2)c2ccccc21.O=C(O)C(=O)O (stereo not drawn) | 133 to 136 |  |  |  |
| Clc1ccc2c(CCN3CCN(c4cccc5ccoc45)CC3)c[nH]c2c1 [Compound 1u, 3-[2-[4-(Benzofuran-7-yl)piperazin-1-yl]ethyl]-6-chloro-1H-indole] | 202 to 204 |  | 5.70 |  |
| Brc1ccc2[nH]cc(CCN3CC=C(c4cccc5ccoc45)CC3)c2c1.O=C(O)C(=O)O | 185 to 194 |  |  |  |
| CC1(C)Cc2cccc(C3CCN(CCc4c[nH]c5cc(Cl)ccc45)CC3)c2O1 (as salt: oxalate) [Compound 1f, 6-Chloro-3-[2-[4-(2,2, -dimethyl-2,3-dihydrobenzofuran-7-yl)piperidin-1-yl]ethyl]-1H-indole oxalate] | 190 to 193 |  |  |  |
| Clc1ccc2c(CCN3CCN(c4cccc5c4SCC=C5)CC3)c[nH]c2c1 [Compound 1t] | 178 to 179 |  |  |  |
| CC1(C)COc2c(N3CCN(CCc4c[nH]c5cc(Cl)ccc45)CC3)cc(Cl)cc21 [Compound 3c, 6-Chloro-3-[2-[4-(5-chloro-3,3-dimethyl-2,3-dihydrobenzofuran-7-yl)piperazin-1-yl]ethyl]-1H-indole hemifumarate] |  |  | 5.59 |  |

Reference: patent US6727263B2, “Indole and 2,3-dihydroindole derivatives, their preparation and use” (H. Lundbeck A/S, priority 1997, dated 2004)
